# Measured values reported in PubChem BioAssay AID2060605 (Molecular Pharmacology Branch, DTP, NCI, 2025).
# pIC50: −log10 of the molar value.
# Test system: 947758-054-R-J2-PDC spheroid growth, percent test/control
# Experiment: Anticancer human tumor 947758-054-R-J2-PDC patient-derived colon adenocarcinoma cell line growth inhibition [CLK]
# Conditions: spheroids with HUVEC and MSC; for pIC50: curve of first compound; for viability, T/C: stronger effect = lower value
# How it was run: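 Multi-cell-type spheroids combined patient-derived tumor cells with HUVEC endothelial cells and human mesenchymal stem cells. Paired agents were dosed in half-log steps down from about clinical Cmax, or from 10 microM where Cmax was unknown.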
# [1] = second compound 0.0316 µM, first compound 0.0316 µM
# [2] = second compound 0.0316 µM, first compound 0.1 µM
# [3] = second compound 0.0316 µM, first compound 0.316 µM
# [4] = second compound 0.0316 µM, first compound 1 µM
# [5] = second compound 0.0316 µM, first compound 3.16 µM
# [6] = second compound 0.0316 µM, first compound 10 µM
# [7] = second compound 0.1 µM, first compound 0.0316 µM
# [8] = second compound 0.1 µM, first compound 0.1 µM
# [9] = second compound 0.1 µM, first compound 0.316 µM
# [10] = second compound 0.1 µM, first compound 1 µM
# [11] = second compound 0.1 µM, first compound 3.16 µM
# [12] = second compound 0.1 µM, first compound 10 µM
# [13] = second compound 0.316 µM, first compound 0.0316 µM
# [14] = second compound 0.316 µM, first compound 0.1 µM
# [15] = second compound 0.316 µM, first compound 0.316 µM
# [16] = second compound 0.316 µM, first compound 1 µM
# [17] = second compound 0.316 µM, first compound 3.16 µM
# [18] = second compound 0.316 µM, first compound 10 µM
# [19] = second compound 1 µM, first compound 0.0316 µM
# [20] = second compound 1 µM, first compound 0.1 µM
# [21] = second compound 1 µM, first compound 0.316 µM
# [22] = second compound 1 µM, first compound 1 µM
# [23] = second compound 1 µM, first compound 3.16 µM
# [24] = second compound 1 µM, first compound 10 µM
# [25] = second compound 3.16 µM, first compound 0.0316 µM
# [26] = second compound 3.16 µM, first compound 0.1 µM
# [27] = second compound 3.16 µM, first compound 0.316 µM
# [28] = second compound 3.16 µM, first compound 1 µM
# [29] = second compound 3.16 µM, first compound 3.16 µM
# [30] = second compound 3.16 µM, first compound 10 µM
# [31] = second compound 10 µM, first compound 0.0316 µM
# [32] = second compound 10 µM, first compound 0.1 µM
# [33] = second compound 10 µM, first compound 0.316 µM
# [34] = second compound 10 µM, first compound 1 µM
# [35] = second compound 10 µM, first compound 3.16 µM
# [36] = second compound 10 µM, first compound 10 µM
# 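Further: spheroids exposed to compounds for one week before readout.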
# 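Wherever viability, T/C is given: 100% = DMSO vehicle control wells.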
structure (smiles),measurement,setting,value
CC(=O)O[C@H]1C(=O)[C@@]2(C)[C@H]([C@H](OC(=O)c3ccccc3)[C@]3(O)C[C@H](OC(=O)[C@H](O)[C@@H](NC(=O)c4ccccc4)c4ccccc4)C(C)=C1C3(C)C)[C@]1(OC(C)=O)CO[C@@H]1C[C@@H]2O + CNC(=O)c1ccc(Nc2nc(OC3CCCC3)c3c(-c4ccc5nc(C)oc5c4)c[nH]c3n2)c(OC)c1,pIC50,second compound 0.0316 µM,> 7.50
same,pIC50,second compound 0.1 µM,< 5.00
same,pIC50,second compound 0.316 µM,> 7.50
same,pIC50,second compound 1 µM,< 5.00
same,pIC50,second compound 3.16 µM,> 7.50
same,pIC50,second compound 10 µM,> 7.50
same,"viability, T/C",[1],27.7%
same,"viability, T/C",[2],34.4%
same,"viability, T/C",[3],31.7%
same,"viability, T/C",[4],35.2%
same,"viability, T/C",[5],40.6%
same,"viability, T/C",[6],47.7%
same,"viability, T/C",[7],61.2%
same,"viability, T/C",[8],59%
same,"viability, T/C",[9],65%
same,"viability, T/C",[10],79.8%
same,"viability, T/C",[11],79.1%
same,"viability, T/C",[12],90.5%
same,"viability, T/C",[13],47.7%
same,"viability, T/C",[14],65.1%
same,"viability, T/C",[15],74.4%
same,"viability, T/C",[16],85.6%
same,"viability, T/C",[17],88.3%
same,"viability, T/C",[18],87.4%
same,"viability, T/C",[19],41.1%
same,"viability, T/C",[20],83.5%
same,"viability, T/C",[21],59.1%
same,"viability, T/C",[22],61.9%
same,"viability, T/C",[23],82.8%
same,"viability, T/C",[24],57.6%
same,"viability, T/C",[25],36.9%
same,"viability, T/C",[26],43.8%
same,"viability, T/C",[27],70.2%
same,"viability, T/C",[28],70.8%
same,"viability, T/C",[29],67.9%
same,"viability, T/C",[30],56.8%
same,"viability, T/C",[31],35.2%
same,"viability, T/C",[32],42.1%
same,"viability, T/C",[33],56.7%
same,"viability, T/C",[34],53.9%
same,"viability, T/C",[35],56.8%
same,"viability, T/C",[36],61.3%
COc1ccc([C@@H](O)c2cc(-c3ncnc4cc(N5CCOCC5)ccc34)c(F)cc2Cl)nn1 + CNC(=O)c1ccc(Nc2nc(OC3CCCC3)c3c(-c4ccc5nc(C)oc5c4)c[nH]c3n2)c(OC)c1,pIC50,second compound 0.0316 µM,5.72
same,pIC50,second compound 0.1 µM,6.05
same,pIC50,second compound 0.316 µM,6.06
same,pIC50,second compound 1 µM,6.94
same,pIC50,second compound 3.16 µM,> 7.50
same,pIC50,second compound 10 µM,> 7.50
same,"viability, T/C",[1],82.4%
same,"viability, T/C",[2],63.7%
same,"viability, T/C",[3],74.7%
same,"viability, T/C",[4],49.5%
same,"viability, T/C",[5],48.6%
same,"viability, T/C",[6],32.8%
same,"viability, T/C",[7],91.8%
same,"viability, T/C",[8],81.3%
same,"viability, T/C",[9],62.9%
same,"viability, T/C",[10],50.4%
same,"viability, T/C",[11],33.8%
same,"viability, T/C",[12],25.9%
same,"viability, T/C",[13],80.1%
same,"viability, T/C",[14],66.8%
same,"viability, T/C",[15],58.2%
same,"viability, T/C",[16],53.4%
same,"viability, T/C",[17],34.6%
same,"viability, T/C",[18],17.7%
same,"viability, T/C",[19],59%
same,"viability, T/C",[20],51.9%
same,"viability, T/C",[21],40%
same,"viability, T/C",[22],31.6%
same,"viability, T/C",[23],24.2%
same,"viability, T/C",[24],6.15%
same,"viability, T/C",[25],38%
same,"viability, T/C",[26],32.4%
same,"viability, T/C",[27],37.6%
same,"viability, T/C",[28],24.1%
same,"viability, T/C",[29],14.1%
same,"viability, T/C",[30],7.87%
same,"viability, T/C",[31],30.4%
same,"viability, T/C",[32],31.9%
same,"viability, T/C",[33],31%
same,"viability, T/C",[34],21.5%
same,"viability, T/C",[35],8.56%
same,"viability, T/C",[36],5.76%
COc1cccc2c1C(=O)c1c(O)c3c(c(O)c1C2=O)CC(O)(C(=O)CO)CC3OC1CC(N)C(O)C(C)O1 (stereo unspecified) + CNC(=O)c1ccc(Nc2nc(OC3CCCC3)c3c(-c4ccc5nc(C)oc5c4)c[nH]c3n2)c(OC)c1,pIC50,second compound 0.0316 µM,7.17
same,pIC50,second compound 0.1 µM,7.37
same,pIC50,second compound 0.316 µM,> 7.50
same,pIC50,second compound 1 µM,> 7.50
same,pIC50,second compound 3.16 µM,> 7.50
same,pIC50,second compound 10 µM,> 7.50
same,"viability, T/C",[1],59%
same,"viability, T/C",[2],41.9%
same,"viability, T/C",[3],32.6%
same,"viability, T/C",[4],8.58%
same,"viability, T/C",[5],0.41%
same,"viability, T/C",[6],6.15%
same,"viability, T/C",[7],52.9%
same,"viability, T/C",[8],42.3%
same,"viability, T/C",[9],23.6%
same,"viability, T/C",[10],4.38%
same,"viability, T/C",[11],0.29%
same,"viability, T/C",[12],4.57%
same,"viability, T/C",[13],45.4%
same,"viability, T/C",[14],32.1%
same,"viability, T/C",[15],12.9%
same,"viability, T/C",[16],2.1%
same,"viability, T/C",[17],0.25%
same,"viability, T/C",[18],5.74%
same,"viability, T/C",[19],28.7%
same,"viability, T/C",[20],22.5%
same,"viability, T/C",[21],5.4%
same,"viability, T/C",[22],0.36%
same,"viability, T/C",[23],0.24%
same,"viability, T/C",[24],6.92%
same,"viability, T/C",[25],28.1%
same,"viability, T/C",[26],15.5%
same,"viability, T/C",[27],5.36%
same,"viability, T/C",[28],0.27%
same,"viability, T/C",[29],0.27%
same,"viability, T/C",[30],9.95%
same,"viability, T/C",[31],23.3%
same,"viability, T/C",[32],20.3%
same,"viability, T/C",[33],4.23%
same,"viability, T/C",[34],0.21%
same,"viability, T/C",[35],1%
same,"viability, T/C",[36],12.1%
